Data published in patent EP4707280A1, “1,4-CINEOLE DERIVATIVE AND INTERMEDIATE THEREOF, HERBICIDE CONTAINING SAID DERIVATIVE AS ACTIVE INGREDIENT, METHOD FOR USING HERBICIDE, AND METHOD FOR PREPARING AGROCHEMICAL COMPOSITION” (HOKKO CHEMICAL INDUSTRY CO., LTD., priority 2023, dated 2024).

Tests used:
Assay type in all cases: in vivo
Digitaria ciliaris [1] = test: Test Example 4: herbicidal effect test by stem and leaf treatment in upland field; conditions: Digitaria ciliaris; 120 g per 10 ares; sprayed seven days after sowing, upland soil; 14 days after application; read-out: weed inhibition rate
Digitaria ciliaris [2] = test: Test Example 8: herbicidal effect test by stem and leaf treatment in upland field (low dose); conditions: Digitaria ciliaris; 7.5 g per 10 ares; sprayed seven days after sowing, upland soil; 14 days after application; read-out: weed inhibition rate
Echinochloa crus-galli [3] = test: as above; conditions: Echinochloa crus-galli; 7.5 g per 10 ares; sprayed seven days after sowing, upland soil; 14 days after application; read-out: weed inhibition rate
[4] = system: Echinochloa crus-galli var. formosensis; test: Test Example 5: herbicidal effect test by soil application in paddy rice (low dose); conditions: Echinochloa crus-galli, soil, 336 h; 7.5 g per 10 ares; applied immediately after sowing, flooded pots; 14 days after application; read-out: weed inhibition rate
Outline: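 Pre-emergence paddy test: seeds sown 0–1 cm (30 each), pots flooded ~3 cm, greenhouse. EC dilution dropped into water right after sowing, 7.5 g a.i./10 a. Duplicate pots; weed inhibition rate (%) by formula, day 14.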

[5] = system: Echinochloa crus-galli var. formosensis; test: Test Example 6: herbicidal effect test by application during growth period of paddy rice (low dose); conditions: Echinochloa crus-galli; 7.5 g per 10 ares; applied seven days after sowing, flooded pots; 14 days after application; read-out: weed inhibition rate
Outline: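 Emulsifiable concentrate, water-diluted, dropped onto flooded paddy pots 7 days post-sowing at 7.5 g active ingredient/10 a. Greenhouse-grown weeds; percent inhibition scored at day 14 after treatment.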

[6] = system: Echinochloa crus-galli var. formosensis; test: Test Example 1: herbicidal effect test by soil application in paddy rice; conditions: Echinochloa crus-galli, soil, 336 h; 120 g active ingredient per 10 ares; applied immediately after sowing, flooded pots; 14 days after application; read-out: weed inhibition rate
Outline: (§1)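 Pre-emergence paddy treatment: diluted emulsifiable concentrate applied by dropper at 120 g a.i./10 ares immediately after sowing. Seeds (30 per species, 0–1 cm deep) in fertilized, puddled paddy soil kept under ~3 cm flood in a glass greenhouse.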

Scirpus juncoides [7] = test: as above; conditions: Schoenoplectiella juncoides, soil, 336 h; 120 g active ingredient per 10 ares; applied immediately after sowing, flooded pots; 14 days after application; read-out: weed inhibition rate
Outline: as §1

[8] = system: Echinochloa crus-galli var. formosensis; test: Test Example 2: herbicidal effect test by application during growth period of paddy rice; conditions: Echinochloa crus-galli; 120 g per 10 ares; applied seven days after sowing, flooded pots; 14 days after application; read-out: weed inhibition rate
Outline: (§2)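 Flooded paddy pot test, greenhouse. Seeds 30/species, 0–1 cm depth, water ~3 cm. EC diluted in water, dropper-applied 7 d post-sowing at 120 g a.i./10 a. Inhibition rate (%) read 14 d after treatment; n=2.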

Scirpus juncoides [9] = test: as above; conditions: Schoenoplectiella juncoides; 120 g per 10 ares; applied seven days after sowing, flooded pots; 14 days after application; read-out: weed inhibition rate
Outline: as §2

Digitaria ciliaris [10] = test: Test Example 3: herbicidal effect test by soil application in upland field; conditions: Digitaria ciliaris, 120 g per 10 ares, sprayed one day after sowing, 14 days after application, read-out: weed inhibition rate
Outline: (§3)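 Weed inhibition (%) was assessed 14 days after treatment, in duplicate per concentration group. Seeds had been mixed into the upper 1 cm of upland alluvial loam, and the soil surface was sprayed one day later with the diluted emulsifiable concentrate at 120 g active ingredient per 10 ares.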

Echinochloa crus-galli [11] = test: as above; conditions: Echinochloa crus-galli, 120 g per 10 ares, sprayed one day after sowing, 14 days after application, read-out: weed inhibition rate
Outline: as §3

Echinochloa crus-galli [12] = test: Test Example 4: herbicidal effect test by stem and leaf treatment in upland field; conditions: Echinochloa crus-galli; 120 g per 10 ares; sprayed seven days after sowing, upland soil; 14 days after application; read-out: weed inhibition rate
Digitaria ciliaris [13] = test: Test Example 7: herbicidal effect test by soil application in upland field (low dose); conditions: Digitaria ciliaris, 7.5 g per 10 ares, sprayed one day after sowing, 14 days after application, read-out: weed inhibition rate
Outline: (§4)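 Read-out: weed inhibition rate (%) at 14 d post-treatment, duplicate pots per concentration. Seeds sown in the top 1 cm of upland alluvial loam; emulsifiable concentrate diluted in water and sprayed on the soil surface 1 d after sowing at 7.5 g a.i./10 a (100 L/10 a spray volume).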

Echinochloa crus-galli [14] = test: as above; conditions: Echinochloa crus-galli, 7.5 g per 10 ares, sprayed one day after sowing, 14 days after application, read-out: weed inhibition rate
Outline: as §4

CC(C)=CCO[C@@H]1C[C@]2(C(C)C)O[C@@]1(C)C[C@@H]2I [1-732, (1R,2S,4S,5R)-2-iodo-1-isopropyl-4-methyl-5-(3-methylbut-2-enoxy)-7-oxabicyclo[2.2.1]heptane]
≥ 80%: inhibition at 1200 g/ha (Digitaria ciliaris [1]) | inhibition at 75 g/ha (Digitaria ciliaris [2]) | inhibition at 75 g/ha (Echinochloa crus-galli [3]) | inhibition at 75 g/ha [4] | inhibition at 75 g/ha [5] | pest or weed control at 1200 g/ha [6] | pest or weed control at 1200 g/ha (Scirpus juncoides [7]) | inhibition at 1200 g/ha [8] | inhibition at 1200 g/ha (Scirpus juncoides [9]) | inhibition at 1200 g/ha (Digitaria ciliaris [10]) | inhibition at 1200 g/ha (Echinochloa crus-galli [11]) | inhibition at 1200 g/ha (Echinochloa crus-galli [12]) | inhibition at 75 g/ha (Digitaria ciliaris [13]) | inhibition at 75 g/ha (Echinochloa crus-galli [14])

CC#CCO[C@@H]1C[C@]2(C(C)C)O[C@@]1(C)C[C@@H]2I [1-734, (1R,2S,4S,5R)-5-but-2-ynoxy-2-iodo-1-isopropyl-4-methyl-7-oxabicyclo[2.2.1]heptane]
≥ 80%: inhibition at 1200 g/ha (Digitaria ciliaris [1]) | inhibition at 75 g/ha (Digitaria ciliaris [2]) | inhibition at 75 g/ha (Echinochloa crus-galli [3]) | inhibition at 75 g/ha [4] | inhibition at 75 g/ha [5] | pest or weed control at 1200 g/ha [6] | pest or weed control at 1200 g/ha (Scirpus juncoides [7]) | inhibition at 1200 g/ha [8] | inhibition at 1200 g/ha (Scirpus juncoides [9]) | inhibition at 1200 g/ha (Digitaria ciliaris [10]) | inhibition at 1200 g/ha (Echinochloa crus-galli [11]) | inhibition at 1200 g/ha (Echinochloa crus-galli [12]) | inhibition at 75 g/ha (Digitaria ciliaris [13]) | inhibition at 75 g/ha (Echinochloa crus-galli [14])

CC(C)[C@]12C[C@@H](OCc3ccccc3)[C@](C)(C[C@@H]1I)O2 [1-740, (1R,2S,4S,5R)-5-benzyloxy-2-iodo-1-isopropyl-4-methyl-7-oxabicyclo[2.2.1]heptane]
≥ 80%: inhibition at 1200 g/ha (Digitaria ciliaris [1]) | inhibition at 75 g/ha (Digitaria ciliaris [2]) | inhibition at 75 g/ha (Echinochloa crus-galli [3]) | inhibition at 75 g/ha [4] | inhibition at 75 g/ha [5] | pest or weed control at 1200 g/ha [6] | pest or weed control at 1200 g/ha (Scirpus juncoides [7]) | inhibition at 1200 g/ha [8] | inhibition at 1200 g/ha (Scirpus juncoides [9]) | inhibition at 1200 g/ha (Digitaria ciliaris [10]) | inhibition at 1200 g/ha (Echinochloa crus-galli [11]) | inhibition at 1200 g/ha (Echinochloa crus-galli [12]) | inhibition at 75 g/ha (Digitaria ciliaris [13]) | inhibition at 75 g/ha (Echinochloa crus-galli [14])

COc1ccccc1CO[C@@H]1C[C@]2(C(C)C)O[C@@]1(C)C[C@@H]2I [1-747, (1R,2S,4S,5R)-2-iodo-1-isopropyl-5-[(2-methoxyphenyl)methoxy]-4-methyl-7-oxabicyclo[2.2.1]heptane]
≥ 80%: inhibition at 1200 g/ha (Digitaria ciliaris [1]) | inhibition at 75 g/ha (Digitaria ciliaris [2]) | inhibition at 75 g/ha (Echinochloa crus-galli [3]) | inhibition at 75 g/ha [4] | inhibition at 75 g/ha [5] | pest or weed control at 1200 g/ha [6] | pest or weed control at 1200 g/ha (Scirpus juncoides [7]) | inhibition at 1200 g/ha [8] | inhibition at 1200 g/ha (Scirpus juncoides [9]) | inhibition at 1200 g/ha (Digitaria ciliaris [10]) | inhibition at 1200 g/ha (Echinochloa crus-galli [11]) | inhibition at 1200 g/ha (Echinochloa crus-galli [12]) | inhibition at 75 g/ha (Digitaria ciliaris [13]) | inhibition at 75 g/ha (Echinochloa crus-galli [14])

CC(C)[C@]12C[C@@H](OCc3ccccc3Cl)[C@](C)(C[C@@H]1I)O2 [1-756, (1R,2S,4S,5R)-5-[(2-chlorophenyl)methoxy]-2-iodo-1-isopropyl-4-methyl-7-oxabicyclo[2.2.1]heptane]
≥ 80%: inhibition at 1200 g/ha (Digitaria ciliaris [1]) | inhibition at 75 g/ha (Digitaria ciliaris [2]) | inhibition at 75 g/ha (Echinochloa crus-galli [3]) | inhibition at 75 g/ha [4] | inhibition at 75 g/ha [5] | pest or weed control at 1200 g/ha [6] | pest or weed control at 1200 g/ha (Scirpus juncoides [7]) | inhibition at 1200 g/ha [8] | inhibition at 1200 g/ha (Scirpus juncoides [9]) | inhibition at 1200 g/ha (Digitaria ciliaris [10]) | inhibition at 1200 g/ha (Echinochloa crus-galli [11]) | inhibition at 1200 g/ha (Echinochloa crus-galli [12]) | inhibition at 75 g/ha (Digitaria ciliaris [13]) | inhibition at 75 g/ha (Echinochloa crus-galli [14])
